From EP0221032A2, “Sodium salt of etodolic acid and process for its preparation” (priority 1985, dated 1987)
Counter-ions that a name gives are not always drawn. Like-named read-outs stand apart in the source and are kept apart here. One block for each compound: values may come before it.

Assays:
[1] = background statement on the free acid; cited from earlier work
[2] = Water solubility of etodolic acid and its salts; assay type: physicochemical; settings: for solubility: water
Protocol: Etodolic acid was taken into consideration as a typical representative, particularly appreciated from the pharmacological point of view, of said derivatives and some typical salts thereof were prepared.
(§1) In order to avail oneself of a derivative usable in therapy, it is necessary, in fact, to obtain a highly soluble substance, also considering the doses of etodolic acid which have to be administered for getting an efficient therapeutic action (at least 200 mg twice a day in the adult).

[3] = Stability after sterilization at 120°C in autoclave for 20 min; assay type: physicochemical; settings: 10% aqueous solution
Description: (§2) The following tables No.1, 2 and 3 respectively show the stability data of sodium etodolate in aqueous solutions at 10% and 20% at various temperatures and again at 10% after sterilization in autoclave in a closed container.

[4] = pH of aqueous solutions of the sodium salt; assay type: physicochemical
Description: The 20% solution has a pH of 8.7, while a 7.3% solution has a pH of 7.8.

[5] = Colour and stability of aqueous solutions of the salts (quickened ageing tests); assay type: physicochemical; settings: for colour of the solutions: aqueous solutions
Protocol: as §1

[6] = Stability in a 10% aqueous solution at various temperatures; assay type: physicochemical; settings: for remaining at 720 h / remaining at 1440 h / remaining at 2160 h: water, read-out: Titre % (HPLC)
Description: as §2

[7] = Stability in a 20% aqueous solution at various temperatures; assay type: physicochemical; settings: for remaining at 720 h / remaining at 1440 h / remaining at 2160 h: water, read-out: Titre % (HPLC)
Description: as §2

[8] = after sterilization at 120°C in autoclave for 20 min, closed container

Structure (SMILES): CCc1cccc2c3c([nH]c12)C(CC)(CC(=O)O)OCC3 (centres unmarked) [etodolic acid, 1,8-diethyl-1,3,4,9-tetrahydropyran-[3,4-b] indol-1-acetic acid]
water solubility (in words) [1]: water-insoluble

water solubility (in words) [2]: easily soluble in water | solubility [2]: exceed 20 % by weight | solubility ([2]; water-soluble): > 200 mg/mL | Appearance of the solution [3, 8]: limpid | Colour of the solution [3, 8]: pale yellow | pH [3, 8]: 7.8 | Appearance of the solution ([3]; at starting-point): limpid | Colour of the solution ([3]; at starting-point): pale yellow | Titre % (HPLC) ([3]; at starting-point): 100% | pH ([3]; at starting-point): 7.8 | remaining at 20 min ([3]; water, after sterilization at 120°C in autoclave for 20 min, closed container, read-out: Titre (%) (HPLC)): 100% | pH ([4]; 7.3% solution): 7.8 | pH ([4]; 20% solution): 8.7 | colour of the solutions [5]: only fleebly yellow-coloured | stability of the solutions ([5]; during time): very stable during time | stability ([5]; most different storage and treatment conditions (summary of Tables 1-3)): quite stable | Colour ([6]; 5°C, 1 month): unchanged | pH ([6]; 5°C, 1 month): 7.8 | Colour ([6]; 5°C, 2 month): unchanged | pH ([6]; 5°C, 2 month): 7.8 | Colour ([6]; 5°C, 3 month): unchanged | pH ([6]; 5°C, 3 month): 7.75 | Colour ([6]; 25°C, 1 month): unchanged | pH ([6]; 25°C, 1 month): 7.8 | Colour ([6]; 25°C, 2 month): unchanged | pH ([6]; 25°C, 2 month): 7.85 | Colour ([6]; 25°C, 3 month): unchanged | pH ([6]; 25°C, 3 month): 7.8 | Colour ([6]; 45°C, 1 month): unchanged | pH ([6]; 45°C, 1 month): 7.8 | Colour ([6]; 45°C, 2 month): unchanged | pH ([6]; 45°C, 2 month): 7.8 | Colour ([6]; 45°C, 3 month): unchanged | pH ([6]; 45°C, 3 month): 7.7 | Colour ([6]; at starting point): pale yellow | Titre % (HPLC) ([6]; at starting point): 100% | pH ([6]; at starting point): 7.8 | remaining at 720 h ([6]; 5°C, 1 month): 99% | remaining at 1440 h ([6]; 5°C, 2 month): 100% | remaining at 2160 h ([6]; 5°C, 3 month): 100% | remaining at 720 h ([6]; 25°C, 1 month): 100% | remaining at 1440 h ([6]; 25°C, 2 month): 100% | remaining at 2160 h ([6]; 25°C, 3 month): 99% | remaining at 720 h ([6]; 45°C, 1 month): 100% | remaining at 1440 h ([6]; 45°C, 2 month): 99% | remaining at 2160 h ([6]; 45°C, 3 month): 100% | Colour ([7]; 5°C, 1 month): unchanged | pH ([7]; 5°C, 1 month): 8.7 | Colour ([7]; 5°C, 2 month): unchanged | pH ([7]; 5°C, 2 month): 8.7 | Colour ([7]; 5°C, 3 month): unchanged | pH ([7]; 5°C, 3 month): 8.6 | Colour ([7]; 25°C, 1 month): unchanged | pH ([7]; 25°C, 1 month): 8.7 | Colour ([7]; 25°C, 2 month): unchanged | pH ([7]; 25°C, 2 month): 8.6 | Colour ([7]; 25°C, 3 month): unchanged | pH ([7]; 25°C, 3 month): 8.7 | Colour ([7]; 45°C, 1 month): unchanged | pH ([7]; 45°C, 1 month): 8.6 | Colour ([7]; 45°C, 2 month): deep yellow | pH ([7]; 45°C, 2 month): 8.7 | Colour ([7]; 45°C, 3 month): deep yellow | pH ([7]; 45°C, 3 month): 8.7 | Colour ([7]; at starting point): pale yellow | Titre % (HPLC) ([7]; at starting point): 100% | pH ([7]; at starting point): 8.7 | remaining at 720 h ([7]; 5°C, 1 month): 99% | remaining at 1440 h ([7]; 5°C, 2 month): 100% | remaining at 2160 h ([7]; 5°C, 3 month): 97% | remaining at 720 h ([7]; 25°C, 1 month): 100% | remaining at 1440 h ([7]; 25°C, 2 month): 99% | remaining at 2160 h ([7]; 25°C, 3 month): 100% | remaining at 720 h ([7]; 45°C, 1 month): 99% | remaining at 1440 h ([7]; 45°C, 2 month): 98% | remaining at 2160 h ([7]; 45°C, 3 month): 98%
Structure (SMILES): CCc1cccc2c3c([nH]c12)C(CC)(CC(=O)O)OCC3 (centres unmarked) [sodium salt of etodolic acid, Sodium salt of etodolic acid]

solubility [2]: 2% | colour of the solutions [5]: deeply coloured | stability of the solutions ([5]; quickened ageing tests): not much stable
Structure (SMILES): CCc1cccc2c3c([nH]c12)C(CC)(CC(=O)O)OCC3 (centres unmarked) [potassium salt, reference compound]
